25 molecules from patent US20070049593A1 (priority 2004, published 2007) can be followed below.

Structures can show the parent of a compound that is named as a salt.

The target in the assay is T1, HCV polymerase (Hepatitis C virus genotype 1b, UniProt P26663).
T1 construct: a region encoding NS5B (J Virol 1991 March, 65(3), 1105-13, 544 amino acids after deletion of 47 amino acids on the C-terminal); 6xHis (C); made in house; host or cells: Escherichia coli
T1 sequence (P26663 2420-2963): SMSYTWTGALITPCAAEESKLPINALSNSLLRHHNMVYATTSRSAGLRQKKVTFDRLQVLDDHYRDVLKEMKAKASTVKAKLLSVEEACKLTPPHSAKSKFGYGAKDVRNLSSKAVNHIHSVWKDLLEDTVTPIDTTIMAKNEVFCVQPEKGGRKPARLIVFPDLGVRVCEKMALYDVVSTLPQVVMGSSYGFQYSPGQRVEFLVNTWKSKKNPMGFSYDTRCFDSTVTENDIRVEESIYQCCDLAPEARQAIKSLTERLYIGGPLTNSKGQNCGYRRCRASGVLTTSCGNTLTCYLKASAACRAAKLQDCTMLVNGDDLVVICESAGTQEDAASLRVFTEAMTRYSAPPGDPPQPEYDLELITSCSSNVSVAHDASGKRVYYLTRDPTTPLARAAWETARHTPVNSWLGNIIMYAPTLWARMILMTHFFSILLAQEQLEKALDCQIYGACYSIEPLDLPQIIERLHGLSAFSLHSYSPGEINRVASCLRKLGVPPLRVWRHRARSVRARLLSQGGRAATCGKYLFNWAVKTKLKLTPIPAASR
In words: biochemical. The arrangement: species or system HCV BK strain. The gist of the method:
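Recombinant HCV BK-strain NS5B (C-terminal 47 aa deleted, His6-tagged, E. coli), 0.5 μg/ml, run with 5 μg/ml in vitro-transcribed RNA template (polyU/3′X), ATP/GTP/CTP 50 μM, UTP 2 μM plus [3H]UTP, pH 7.5, 25° C, 90 min. TCA-precipitated RNA counted by scintillation; IC50 from activity with vs without compound.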
As a reminder, the IC50 is the concentration that inhibits the measured activity by half. Low readings indicate greater potency, high ones weaker potency. Take `COc1ccc2c(c1)OCCn1c-2c(C2CCCCC2)c2ccc(C(=O)N[C@@H](Cc3cccc(C(F)(F)F)c3)C(=O)O)cc21` [Example 2-354, (S)-2-[(12-cyclohexyl-3-methoxy-6,7-dihydro-5-oxa-7a-azadibenzo[a,e]azulene-9-carbonyl)amino]-3-(3-trifluoromethylphenyl)propionic acid]: the 50% inhibitory concentration (IC50) is below 100 nM.
Then `COc1ccc2c(c1)OCCn1c-2c(C2CCCCC2)c2ccc(C(=O)NC(Cc3cccc(O)c3)C(=O)O)cc21` (stereo not shown) [Example 2-355, 2-[(12-cyclohexyl-3-methoxy-6,7-dihydro-5-oxa-7a-azadibenzo[a,e]azulene-9-carbonyl)amino]-3-(3-hydroxyphenyl)propionic acid], with below 100 nM; and `COC(=O)[C@H](Cc1ccncc1)NC(=O)c1ccc2c(C3CCCCC3)c3n(c2c1)CCOc1cc(OC)ccc1-3` [Example 2-356, methyl (S)-2-[(12-cyclohexyl-3-methoxy-6,7-dihydro-5-oxa-7a-azadibenzo[a,e]azulene-9-carbonyl)amino]-3-(pyridin-4-yl)propionate], with below 100 nM; and `O=C(O)c1ccc2c(C3CCCCC3)c3n(c2c1)CCOc1c-3cccc1N(CC(=O)N1CCCOCC1)CC(=O)N1CCCOCC1` [Example 2-357, 4-{bis[2-(1,4-oxazepan-4-yl)-2-oxoethyl]amino}-12-cyclohexyl-6,7-dihydro-5-oxa-7a-azadibenzo[a,e]azulene-9-carboxylic acid], with below 100 nM.
Next, `CC(C)(NC(=O)c1ccc2c(C3CCCCC3)c3n(c2c1)CCOc1ccccc1-3)C(=O)N1CCC(O)(c2ccc(F)cc2)CC1` [Example 2-358, N-{2-[4-(4-fluorophenyl)-4-hydroxypiperidin-1-yl]-1,1-dimethyl-2-oxoethyl]-12-cyclohexyl-6,7-dihydro-5-oxa-7a-azadibenzo[a,e]azulene-9-carboxamide]: below 100 nM.
Molecule `O=C(O)c1ccc2c(C3CCCCC3)c3n(c2c1)CCOc1c-3cccc1N(CC(=O)N1CCOCC1)CC(=O)N1CCOCC1` [Example 2-359, 4-{bis[2-(morpholin-4-yl)-2-oxoethyl]amino}-12-cyclohexyl-6,7-dihydro-5-oxa-7a-azadibenzo[a,e]azulene-9-carboxylic acid] returned an IC50 below 100 nM.
Then `O=C(O)c1ccc2c(C3CCCCC3)c3n(c2c1)CCOc1c-3cccc1N(CCN1CCCOCC1)CCN1CCCOCC1` [Example 2-360, 4-{bis[2-(1,4-oxazepan-4-yl)ethyl]amino}-12-cyclohexyl-6,7-dihydro-5-oxa-7a-azadibenzo[a,e]azulene-9-carboxylic acid trihydrochloride], with below 100 nM; and `O=C(O)c1ccc2c(C3CCCCC3)c3n(c2c1)CCOc1c-3cccc1N(CCN1CCOCC1)CCN1CCOCC1` [Example 2-361, 4-{bis[2-(morpholin-4-yl)ethyl]amino}-12-cyclohexyl-6,7-dihydro-5-oxa-7a-azadibenzo[a,e]azulene-9-carboxylic acid trihydrochloride], with below 100 nM; and `COC(=O)Nc1ccc(C[C@H](NC(=O)c2ccc3c(C4CCCCC4)c4n(c3c2)CCOc2cc(OC)ccc2-4)C(=O)OC)cc1` [Example 2-362, methyl (S)-2-[(12-cyclohexyl-3-methoxy-6,7-dihydro-5-oxa-7a-azadibenzo[a,e]azulene-9-carbonyl)amino]-3-(4-methoxycarbonylaminophenyl)propionate], with below 100 nM.
Next, `COC(=O)[C@H](Cc1ccc(O)c(Cl)c1)NC(=O)c1ccc2c(C3CCCCC3)c3n(c2c1)CCOc1cc(OC)ccc1-3` [Example 2-363, methyl (S)-3-(3-chloro-4-hydroxyphenyl)-2-[(12-cyclohexyl-3-methoxy-6,7-dihydro-5-oxa-7a-azadibenzo[a,e]azulene-9-carbonyl)amino]propionate]: below 100 nM; `COC(=O)Nc1ccc(C[C@H](NC(=O)c2ccc3c(C4CCCCC4)c4n(c3c2)CCOc2cc(OC)ccc2-4)C(=O)O)cc1` [Example 2-364, (S)-2-[(12-cyclohexyl-3-methoxy-6,7-dihydro-5-oxa-7a-azadibenzo[a,e]azulene-9-carbonyl)amino]-3-(4-methoxycarbonylaminophenyl)propionic acid]: below 100 nM; `COc1ccc2c(c1)OCCn1c-2c(C2CCCCC2)c2ccc(C(=O)N[C@@H](Cc3ccc(O)c(Cl)c3)C(=O)O)cc21` [Example 2-365, (S)-3-(3-chloro-4-hydroxyphenyl)-2-[(12-cyclohexyl-3-methoxy-6,7-dihydro-5-oxa-7a-azadibenzo[a,e]azulene-9-carbonyl)amino]propionic acid]: below 100 nM.
Next, `COC(=O)[C@H](CCc1ccc(O)cc1)NC(=O)c1ccc2c(C3CCCCC3)c3n(c2c1)CCOc1cc(OC)ccc1-3` [Example 2-366, methyl (S)-2-[(12-cyclohexyl-3-methoxy-6,7-dihydro-5-oxa-7a-azadibenzo[a,e]azulene-9-carbonyl)amino]-4-(4-hydroxyphenyl)butyrate]: below 100 nM.
`COc1ccc2c(c1)OCCn1c-2c(C2CCCCC2)c2ccc(C(=O)NC(C)(C)c3nc4cc(N(C)C)ccc4[nH]3)cc21` [Example 2-367, N-[1-(5-dimethylamino-1H-benzimidazol-2-yl)-1-methylethyl]-12-cyclohexyl-3-methoxy-6,7-dihydro-5-oxa-7a-azadibenzo[a,e]azulene-9-carboxamide] yielded an IC50 below 100 nM.
In turn, `COCC(NC(=O)c1ccc2c(C3CCCCC3)c3n(c2c1)CCOc1cc(OC)ccc1-3)C(=O)N1CCC(O)CC1` (stereo not shown) [Example 2-368, N-[2-(4-hydroxypiperidin-1-yl)-1-methoxymethyl-2-oxoethyl]-12-cyclohexyl-3-methoxy-6,7-dihydro-5-oxa-7a-azadibenzo[a,e]azulene-9-carboxamide] came in with an IC50 below 100 nM.
Then `COc1ccc2c(c1)OCCn1c-2c(C2CCCCC2)c2ccc(C(=O)N[C@@H](Cc3ccc(OCc4ccccc4)cc3)c3nccs3)cc21` [Example 2-369, N—(S)-[2-(4-benzyloxyphenyl)-1-(thiazol-2-yl)ethyl]-12-cyclohexyl-3-methoxy-6,7-dihydro-5-oxa-7a-azadibenzo[a,e]azulene-9-carboxamide], with below 100 nM; and `COc1ccc2c(c1)OCCn1c-2c(C2CCCCC2)c2ccc(C(=O)NC(C)(C)c3nc4cc(-c5nc(C)no5)ccc4[nH]3)cc21` [Example 2-370, N-(1-methyl-1-[5-(3-methyl-1,2,4-oxadiazol-5-yl)-1H-benzimidazol-2-yl]ethyl}-12-cyclohexyl-3-methoxy-6,7-dihydro-5-oxa-7a-azadibenzo[a,e]azulene-9-carboxamide], with below 100 nM.
`COc1ccc2c(c1)OCCn1c-2c(C2CCCCC2)c2ccc(C(=O)N[C@@H](CCC(N)=O)C(=O)OC(C)(C)C)cc21` [Example 2-371, tert-butyl (S)-4-carbamoyl-2-[(12-cyclohexyl-3-methoxy-6,7-dihydro-5-oxa-7a-azadibenzo[a,e]azulene-9-carbonyl)amino]butyrate] came in with an IC50 below 100 nM.
`COc1ccc2c(c1)OCCn1c-2c(C2CCCCC2)c2ccc(C(=O)N[C@@H](CCC(N)=O)C(=O)O)cc21` [Example 2-372, (S)-4-carbamoyl-2-[(12-cyclohexyl-3-methoxy-6,7-dihydro-5-oxa-7a-azadibenzo[a,e]azulene-9-carbonyl)amino]butyric acid] came in with an IC50 below 100 nM.
Then `COC(=O)[C@H](Cc1ccc(O)cc1)NC(=O)c1ccc2c(C3CCCCC3)c3n(c2c1)CCOc1cc(OC)ccc1-3` [Example 2-373, methyl (S)-2-[(12-cyclohexyl-3-methoxy-6,7-dihydro-5-oxa-7a-azadibenzo[a,e]azulene-9-carbonyl)amino]-3-(4-hydroxyphenyl)propionate], with below 100 nM.
`COC(=O)C(Cc1ccc(C(F)(F)F)cc1)NC(=O)c1ccc2c(C3CCCCC3)c3n(c2c1)CCOc1cc(OC)ccc1-3` (stereo not shown) [Example 2-374, methyl 2-[(12-cyclohexyl-3-methoxy-6,7-dihydro-5-oxa-7a-azadibenzo[a,e]azulene-9-carbonyl)amino]-3-(4-trifluoromethylphenyl)propionate] gave an IC50 below 100 nM.
Next, `COc1ccc2c(c1)OCCn1c-2c(C2CCCCC2)c2ccc(C(=O)N[C@@H](Cc3ccc(O)cc3)C(=O)O)cc21` [Example 2-375, (S)-2-[(12-cyclohexyl-3-methoxy-6,7-dihydro-5-oxa-7a-azadibenzo[a,e]azulene-9-carbonyl)amino]-3-(4-hydroxyphenyl)propionic acid]: below 100 nM.
Then `COc1ccc2c(c1)OCCn1c-2c(C2CCCCC2)c2ccc(C(=O)N[C@@H](CCc3ccc(O)cc3)C(=O)O)cc21` [Example 2-376, (S)-2-[(12-cyclohexyl-3-methoxy-6,7-dihydro-5-oxa-7a-azadibenzo[a,e]azulene-9-carbonyl)amino]-4-(4-hydroxyphenyl)butyric acid], with below 100 nM.
Then `COC(=O)[C@H](Cc1ccc(OCC(=O)OC(C)(C)C)cc1)NC(=O)c1ccc2c(C3CCCCC3)c3n(c2c1)CCOc1cc(OC)ccc1-3` [Example 2-377, methyl (S)-3-(4-tert-butoxycarbonylmethoxyphenyl)-2-[(12-cyclohexyl-3-methoxy-6,7-dihydro-5-oxa-7a-azadibenzo[a,e]azulene-9-carbonyl)amino]propionate], with below 100 nM; and `COC(=O)[C@H](Cc1ccc(OCC(=O)O)cc1)NC(=O)c1ccc2c(C3CCCCC3)c3n(c2c1)CCOc1cc(OC)ccc1-3` [Example 2-378, methyl (S)-3-(4-carboxymethoxyphenyl)-2-[(12-cyclohexyl-3-methoxy-6,7-dihydro-5-oxa-7a-azadibenzo[a,e]azulene-9-carbonyl)amino]propionate], with below 100 nM.
